Among the data in the Bradley open melting point set (2014) are melting point values, retold here.

Several values for one entry are separate records, joined by “and”; a condition that tells them apart may be missing. Identical values can stand only once.

The term melting point denotes the temperature, or range, at which the solid turns liquid. For the molecule `O=C(CO)[C@@]3(O)CC[C@H]2[C@@H]4CC\C1=C\C(=O)CC[C@]1(C)[C@H]4C(=O)C[C@@]23C` [cortisone], the melting point was 222 °C and 226 °C (2×). With `C1CCC1` [cyclobutane], the melting point was -90.7 °C. As for `O=C(CO)CO` [1,3-Dihydroxyacetone], the figure is 75 °C. On to `CC(CC(=O)O)c1ccc(C(=O)O)cc1` (stereo not drawn) [4-(2-carboxy-1-methylethyl)benzoic acid], for which the melting point was 225 °C. As to `NC(=O)/C(=N\Nc1ccc(O)cc1)c1nc2ccccc2s1`, the melting point was 161 °C. As for `ClC1=C(Cl)C2(Cl)C3C4CC(C5OC45)C3C1(Cl)C2(Cl)Cl` (stereo not drawn) [Endrin], the figure is 210 °C. Turning to `C[SiH](C)O[SiH](C)C` [1,1,3,3-tetramethyldisiloxane], the melting point was -78 °C. As for `COc1ccc(/N=N/c2c(N)nn3c(C(F)(F)F)cc(C)nc23)cc1`, the figure is 159 °C; as for `CSC(SC)=C(C#N)C(N)=O` [2-Cyano-3,3-bis(methylsulfanyl)acrylamide], 102 °C; as for `CC1(C)CC(=O)c2c(cc3c(c2-c2ccccc2)-c2ccccc2OC3)C1`, 191 °C. As for `CC12CCC(CC1=O)C2(C)C` (stereo not drawn) [camphor], the figure is 177 °C. Turning to `CCCCCCCCC(CCCCCC)C(=O)O` (stereo not drawn) [2-n-hexyldecanoic acid], the melting point worked out at 10 °C. In the case of `Cc1cccc(OCC(O)CNC(C)(C)C)c1C` (stereo not drawn) [xibenolol], the melting point is 57 °C. `CCCCCCCCCC=O` [decanal] displayed a melting point of -5 °C. As for `NC(=O)c1ccccc1[N+](=O)[O-]` [2-nitrobenzamide], the figure is 176 °C; as for `O=C1OC(=O)[C@H]2[C@@H]1[C@@H]1C=C[C@H]2O1` [exo-7-oxabicyclo[2.2.1]hept-5-ene-2,3-dicarboxylic anhydride], 119 °C. Regarding `CC(Br)Br` [1,1-dibromoethane], the melting point was -63 °C. As for `c1ccc(Oc2ccccc2)cc1` [Diphenyl ether], the figure is 27 °C; as for `COc1ccc2cc(C(C)O)ccc2c1` (stereo not drawn) [1-(6-methoxy-2-naphthyl)ethanol], 112 °C; as for `COc1ccc(NS(=O)(=O)c2ccc(N)cc2)nn1` [Sulfamethoxypyridazine], 182 °C. Take `CNC(=S)NCO` [noxythiolin]: the melting point came to 88 °C. As for `C#CCN1C(=O)c2ccccc2C1=O` [N-propargylphthalimide], the figure is 150 °C. Regarding `OB(O)c1ccccc1-c1ccccc1` [biphenyl-2-boronic acid], the melting point is 179 °C. Regarding `Oc1ccccc1C=NCCN=Cc1ccccc1O` [N,N'-bis(salicylidene)ethylenediamine], the melting point was 130 °C. As for `CCCCOC(=O)c1ccc(N)cc1` [butyl p-aminobenzoate], the figure is 58 °C; as for `CCOCCO` [2-Ethoxyethanol], -90 °C; as for `c1cc2ccc3ccc4ccc5ccc6ccc1c1c2c3c4c5c61` [Coronene], 438 °C. As to `O=Cc1ccc(Cl)cc1` [4-Chlorobenzaldehyde], the melting point was 46 °C.

Consider `Cc1nc(-c2ccccn2)sc1C(=O)O` [4-methyl-2-(2-pyridyl)thiazole-5-carboxylic acid], for which the melting point was 226 °C. As for `CC12CCC3C(CCC4CCCCC43C)C1CC(=O)C2` (stereo not drawn) [androstan-16-one], the figure is 108 °C; as for `Cl[C@H]1[C@H](Cl)[C@@H](Cl)[C@H](Cl)[C@H](Cl)[C@H]1Cl` [(1R,2R,3R,4R,5S,6S)-1,2,3,4,5,6-Hexachlorocyclohexane], 159 °C. In turn, `O=[N+]([O-])c1cccc(C=Cc2cccc([N+](=O)[O-])c2)c1` [1,1'-[1,2-Ethenediyl]bis[3-nitrobenzene]] registered a melting point of 88 °C. Take `COc1ccccc1O` [2-Methoxyphenol]: the melting point came to 28 °C.

As for `COc1ccc(B(O)O)c(OC)c1` [2,4-dimethoxybenzeneboronic acid], the melting point amounted to 118 °C. As for `FC(F)(F)c1ccc(P(c2ccc(C(F)(F)F)cc2)c2ccc(C(F)(F)F)cc2)cc1` [tris[4-(trifluoromethyl)phenyl]phosphine], the figure is 74 °C. `O=C(O)C1CCCC1` [cyclopentanecarboxylic acid] returned a melting point of -7 °C. As for `C(=C\c1ccccc1)/c1ccccc1` [trans-stilbene], the figure is 125 °C and 124 °C. As for `N#Cc1ccc2c(c1)N(CCCN1CCC(O)CC1)c1ccccc1S2` [Propericiazine], the figure is 116 °C; as for `O=C(O)c1ccccc1C(=O)O` [phthalic_acid], 210 °C. As for `OB(O)c1ccc(Cl)cc1Cl` [2,4-dichlorobenzeneboronic acid], the figure is 244 °C; as for `COc1cc(NS(=O)(=O)c2ccc(N)cc2)nc(OC)n1` [Sulfadimethoxine], 204 °C; as for `COc1ccc(Cl)cc1N` [5-chloro-o-anisidine], 83 °C.

On to `C[C@]12C=CC(=O)C=C1CC[C@H]1[C@@H]3C[C@@H](O)[C@](O)(C(=O)CO)[C@@]3(C)C[C@H](O)[C@@]12F` [Triamcinolone], for which the melting point stood at 276 °C. As for `Cc1ccccc1O` [o-cresol], the figure is 31 °C and 32 °C; as for `CSC` [dimethyl_sulfide], -98 °C; as for `CC(=O)N1CCN(c2ccc(OC[C@H]3CO[C@](Cn4ccnc4)(c4ccc(Cl)cc4Cl)O3)cc2)CC1` [ketoconazol], 146 °C.

The molecule `O=Cc1ccc(O)c(O)c1` [3,4-dihydroxybenzaldehyde] gave a melting point of 155 °C.

Turning to `O=[PH](O)c1ccccc1` [phenylphosphinic acid], the melting point was 84 °C.

The molecule `OC(c1ccccc1)(c1ccccc1)C1CCNCC1` [azacyclonol] returned a melting point of 160 °C. `O=C(O)[C@@]1(O)CC(O)[C@H](O)[C@H](O)C1` (stereo partly drawn) [D-quinic acid] displayed a melting point of 165 °C. As for `FC(F)(F)c1cccc(Cl)n1` [2-chloro-6-(trifluoromethyl)pyridine], the melting point was 29 °C. As for `Cc1ccc(Cl)c(Cl)c1` [3,4-dichlorotoluene], the figure is -15 °C; as for `NC(=O)c1c(-c2ccccc2)nn(-c2ccccc2)c1N` [5-amino-1,3-diphenyl-1H-pyrazole-4-carboxamide], 200 °C. As for `COc1ccc(C(=O)c2ccccc2)cc1` [4-methoxybenzophenone], the figure is 62 °C. `CCOC(=O)CC(=O)OCC` [diethyl malonate]: the melting point was -50 °C. In turn, `COc1cc(Cl)cc(OC)c1` [1-chloro-3,5-dimethoxybenzene] showed a melting point of 34 °C. As for `CCC1C2=C(OC(=O)C1(C)C)c1ccc(OC)cc1CC2` (stereo not drawn), the figure is 143 °C. `ON=Cc1ccc(Cl)cc1` [4-Chlorobenzaldoxime] displayed a melting point of 101 °C. `CN1CCCC1=O` [1-Methylpyrrolidin-2-one] displayed a melting point of -23 °C.

The molecule `NCCCCCCO` [6-amino-1-hexanol] registered a melting point of 57 °C. For the molecule `c1ccc2cc3ccccc3cc2c1` [anthracene], the melting point was 216 °C (4×) and 218 °C.

Molecule `CCCCOB(OCCCC)OCCCC` [Tributyl borate] displayed a melting point of -70 °C.

Regarding `COc1ccc(C=NO)c(OC)c1` [2,4-dimethoxybenzaldoxime], the melting point came out at 107 °C. The molecule `Nc1ccccc1CCc1ccccc1N` [2,2'-Ethane-1,2-diyldianiline] showed a melting point of 33 °C. For the molecule `C=CC(=O)O` [acrylic_acid], the melting point was 13 °C. As for `C/C=C/C(C)C` [4-methyl-trans-2-pentene], the figure is -141 °C; as for `C=CCc1ccc(OC)c(OC)c1` [4-Allyl-1,2-dimethoxybenzene], -4 °C; as for `ClC1C(Cl)C(Cl)C(Cl)C(Cl)C1Cl` (stereo not drawn) [lindane], 114 °C. Molecule `CC(=O)Nc1ccc(Br)cc1OC(F)(F)F` [4'-bromo-2'-(trifluoromethoxy)acetanilide] showed a melting point of 136 °C. As for `O=C(O)c1ccccc1O` [Salicylic acid], the melting point turned out to be 161 °C. As for `O=C(O)c1ccc(C(F)(F)F)cc1F` [2-fluoro-4-(trifluoromethyl)benzoic acid], the figure is 168 °C.

Consider `COc1ccccc1N1CCN(CCCC(=O)c2ccc(F)cc2)CC1` [fluanisone], for which the melting point is 68 °C. In turn, `CCc1ccc(-c2ccccc2)cc1` [1-ethyl-4-phenylbenzene] registered a melting point of 47 °C.

`C1=C\CCCCCC/1` [cis-cyclooctene] registered a melting point of -16 °C.

With `CCCCCCCCCCCC#N` [dodecanonitrile], the melting point was found to be 4 °C.

`Oc1c(Br)c(Br)c(O)c(Br)c1Br` [tetrabromohydroquinone] yielded a melting point of 244 °C. For the molecule `O=Cc1ccc(O)c(Cl)c1` [3-chloro-4-hydroxybenzaldehyde], the melting point came to 130 °C. As for `COC(=O)C(C#N)c1ccccc1[N+](=O)[O-]` (stereo not drawn) [methyl cyano(2-nitrophenyl)acetate], the figure is 88 °C; as for `CC(C)c1ccccc1O` [2-isopropylphenol], 16 °C.

`COc1ccc2c(c1)C(=O)CC2` [6-methoxy-1-indanone]: the melting point stood at 103 °C.

The molecule `Clc1nc(Cl)nc(Cl)n1` [cyanuric chloride] gave a melting point of 147 °C. As for `COc1ccc(C(=O)O)cc1OC` [3,4-Dimethoxybenzoic acid], the figure is 181 °C.

With `Cc1ccnc(NS(=O)(=O)c2ccc(N)cc2)n1` [sulfamerazine], the melting point worked out at 234 °C. As for `O=C1c2ccccc2C(=O)c2ccccc21` [9,10-anthraquinone], the figure is 285 °C. As for `Clc1ccc(-c2cc(Cl)ccc2Cl)cc1` [PCB-31], the figure is 65 °C; as for `O=C1CSC(=S)N1c1ccccc1` [4-thiazolidinone, 3-phenyl-2-thioxo-], 240 °C. Turning to `COc1cccc(OC)c1P(c1c(OC)cccc1OC)c1c(OC)cccc1OC` [tris(2,6-dimethoxyphenyl)phosphine], the melting point was 146 °C. As for `Nc1ncnc2c1ncn2[C@@H]1O[C@H](CO)[C@@H](O)[C@H]1O` [Adenosine], the figure is 234 °C.
